Activity calls are given as the source filed them. The calls are words filed in the database; no cut-off is given here.
How the values were obtained:
[1] = system: MDA-MB-468; assay: Growth inhibition of human MDA-MB-468 cells assessed as cell viability measured after 4 days by WST8 assay; type: functional, cell-based; conditions: MDA-MB-468, 96 h
[2] = system: MDA-MB-231; assay: Growth inhibition of human MDA-MB-231 cells assessed as cell viability measured after 4 days by WST8 assay; type: functional, cell-based; conditions: MDA-MB-231, 96 h
[3] = target: Protein cereblon/Cyclin-dependent kinase 9 (Homo sapiens) (UniProt P50750+Q96SW2); assay: Protac activity at CRBN/CDK9 in human MDA-MB-231 cells assessed as induction of degradation of CDK9 at 500 nM incubated for 8 hrs by Western blot analysis; type: cell-based
[4] = system: BT-549; assay: Growth inhibition of human BT-549 cells assessed as cell viability measured after 4 days by WST8 assay; type: functional, cell-based; conditions: BT-549, 96 h

Protein cereblon/Cyclin-dependent kinase 9 (Homo sapiens), sequence (P50750 whole entry, looked up): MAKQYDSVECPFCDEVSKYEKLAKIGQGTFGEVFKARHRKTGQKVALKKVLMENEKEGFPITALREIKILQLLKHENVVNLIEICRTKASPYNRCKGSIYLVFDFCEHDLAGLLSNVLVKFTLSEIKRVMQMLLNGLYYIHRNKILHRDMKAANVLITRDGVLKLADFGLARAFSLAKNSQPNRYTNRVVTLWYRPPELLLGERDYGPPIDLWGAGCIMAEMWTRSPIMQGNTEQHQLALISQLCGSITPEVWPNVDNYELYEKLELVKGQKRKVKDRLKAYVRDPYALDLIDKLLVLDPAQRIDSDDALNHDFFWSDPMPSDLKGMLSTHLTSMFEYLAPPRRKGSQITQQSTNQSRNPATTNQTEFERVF
Protein cereblon/Cyclin-dependent kinase 9 (Homo sapiens), sequence (Q96SW2 whole entry, looked up): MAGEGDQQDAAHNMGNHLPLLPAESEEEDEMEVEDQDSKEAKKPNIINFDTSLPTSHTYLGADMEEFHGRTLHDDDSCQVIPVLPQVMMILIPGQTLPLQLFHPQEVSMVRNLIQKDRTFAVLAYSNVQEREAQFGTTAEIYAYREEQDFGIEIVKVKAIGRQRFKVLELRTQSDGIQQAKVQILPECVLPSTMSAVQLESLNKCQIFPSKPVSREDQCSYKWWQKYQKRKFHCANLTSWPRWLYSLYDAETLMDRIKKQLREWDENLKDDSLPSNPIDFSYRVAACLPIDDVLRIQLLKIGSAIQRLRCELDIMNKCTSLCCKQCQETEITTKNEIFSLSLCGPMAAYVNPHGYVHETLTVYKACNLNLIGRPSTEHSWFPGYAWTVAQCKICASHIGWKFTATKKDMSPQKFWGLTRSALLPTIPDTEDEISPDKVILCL

| IC50 [1] | IC50 [2] | Activity [3] | IC50 [4] | SMILES |
| --- | --- | --- | --- | --- |
| 300 nM | 170 nM | Active | 200 nM | CC(C)c1cnn2c(NCc3ccc(NC(=O)CCCCCCCCOc4cccc5c4CN(C4CCC(=O)NC4=O)C5=O)cc3)nc(OC3CCN(C)CC3)nc12 (stereo not drawn) |
| 120 nM | 130 nM | Active | 120 nM | CC(C)c1cnn2c(NCc3ccc(NC(=O)CCCCCCCCOc4cccc5c4C(=O)N(C4CCC(=O)NC4=O)C5=O)cc3)nc(OC3CCN(C)CC3)nc12 (stereo not drawn) |
| > 20000 nM | > 20000 nM | – | > 20000 nM | CC(C)c1cnn2c(NCc3ccccc3N(C)C)nc(OC3CCN(CCOCCNC(=O)COc4cccc5c4C(=O)N(C4CCC(=O)NC4=O)C5=O)CC3)nc12 (stereo not drawn) |
| > 20000 nM | > 20000 nM | – | > 20000 nM | CC(C)c1cnn2c(NCc3ccccc3)cc(NCCCCCCNCCOCCNC(=O)COc3cccc4c3C(=O)N(C3CCC(=O)NC3=O)C4=O)nc12 (stereo not drawn) |
| > 20000 nM | > 20000 nM | – | 14300 nM | CC(C)c1cnn2c(NCc3ccc(NC(=O)CCCCCCNC(=O)COc4cccc5c4C(=O)N(C4CCC(=O)NC4=O)C5=O)cc3N(C)C)nc(OC3CCN(C)CC3)nc12 (stereo not drawn) |
| 590 nM | 900 nM | – | 580 nM | CC(C)c1cnn2c(NCc3ccc(NC(=O)CCCN4CCN(CCCc5cccc6c5CN(C5CCC(=O)NC5=O)C6=O)CC4)cc3)nc(OC3CCN(C)CC3)nc12 (stereo not drawn) |
| 3920 nM | 9290 nM | – | 2260 nM | CC(C)c1cnn2c(NCc3ccccc3-n3ccnc3)nc(OC3CCN(C)CC3)nc12 |
| 16300 nM | > 20000 nM | – | 12800 nM | CC(C)c1cnn2c(NCc3cccc(CCCCCCNC(=O)COc4cccc5c4C(=O)N(C4CCC(=O)NC4=O)C5=O)c3)cc(NCCCCCCN)nc12 (stereo not drawn) |
| 340 nM | 460 nM | – | 190 nM | CC(C)c1cnn2c(NCc3ccc(NC(=O)CCCN4CCN(CCCCCc5cccc6c5CN(C5CCC(=O)NC5=O)C6=O)CC4)cc3)nc(OC3CCN(C)CC3)nc12 (stereo not drawn) |
| > 20000 nM | > 20000 nM | – | > 20000 nM | CC(C)c1cnn2c(NCc3ccccc3)nc(OC3CCN(CCOCCNC(=O)COc4cccc5c4C(=O)N(C4CCC(=O)NC4=O)C5=O)CC3)nc12 (stereo not drawn) |
| 8780 nM | 11900 nM | – | 1030 nM | CC(C)c1cnn2c(NCc3ccccc3N(C)C)nc(OC3CCN(C)CC3)nc12 |
| 15800 nM | > 20000 nM | – | > 20000 nM | CC(C)c1cnn2c(NCc3ccccc3-n3ccnc3)nc(OC3CCN(CCOCCNC(=O)COc4cccc5c4C(=O)N(C4CCC(=O)NC4=O)C5=O)CC3)nc12 (stereo not drawn) |
| 17900 nM | 12600 nM | – | 12600 nM | CC(C)c1cnn2c(NCc3cc(CCCCCCNC(=O)COc4cccc5c4C(=O)N(C4CCC(=O)NC4=O)C5=O)ccc3N(C)C)nc(OC3CCN(C)CC3)nc12 (stereo not drawn) |
| 10300 nM | 16600 nM | – | 12900 nM | CC(C)c1cnn2c(NCc3ccc(CCCCCCNC(=O)COc4cccc5c4C(=O)N(C4CCC(=O)NC4=O)C5=O)cc3)cc(NCCCCCCN)nc12 (stereo not drawn) |
| 3070 nM | 3010 nM | – | 530 nM | CC(C)c1cnn2c(NCc3ccccc3)nc(OC3CCN(C)CC3)nc12 |
| 530 nM | 390 nM | Active | 470 nM | CC(C)c1cnn2c(NCc3ccc(NC(=O)CCCCCCOc4cccc5c4CN(C4CCC(=O)NC4=O)C5=O)cc3)nc(OC3CCN(C)CC3)nc12 (stereo not drawn) |
| 3220 nM | 4320 nM | – | 2060 nM | CC(C)c1cnn2c(NCc3ccc(CCCCCCCOc4cccc5c4C(=O)N(C4CCC(=O)NC4=O)C5=O)cc3)nc(OC3CCN(C)CC3)nc12 (stereo not drawn) |
| 660 nM | 530 nM | – | 550 nM | CC(C)c1cnn2c(NCc3ccc(NC(=O)CCCCCCNc4cccc5c4C(=O)N(C4CCC(=O)NC4=O)C5=O)cc3)nc(OC3CCN(C)CC3)nc12 (stereo not drawn) |
| 5240 nM | 5280 nM | – | 8390 nM | CC(C)c1cnn2c(NCc3ccc(CCCCCCNC(=O)COc4cccc5c4C(=O)N(C4CCC(=O)NC4=O)C5=O)cc3N(C)C)nc(OC3CCN(C)CC3)nc12 (stereo not drawn) |
| > 20000 nM | > 20000 nM | – | > 20000 nM | CC(C)c1cnn2c(NCc3cc(NC(=O)CCCCCCNC(=O)COc4cccc5c4C(=O)N(C4CCC(=O)NC4=O)C5=O)ccc3N(C)C)nc(OC3CCN(C)CC3)nc12 (stereo not drawn) |
| 1450 nM | 1550 nM | – | 1630 nM | CC(C)c1cnn2c(NCc3ccc(NC(=O)CCCCCCNC(=O)COc4cccc5c4C(=O)N(C4CCC(=O)NC4=O)C5=O)cc3)nc(OC3CCN(C)CC3)nc12 (stereo not drawn) |

| IC50 [1] | IC50 [2] | Activity [3] | IC50 [4] | SMILES |
| --- | --- | --- | --- | --- |
| > 20000 nM | > 20000 nM | – | > 20000 nM | CC(C)c1cnn2c(NCc3ccccc3)cc(NCCCCCCNCCOCCOCCOCCNC(=O)COc3cccc4c3C(=O)N(C3CCC(=O)NC3=O)C4=O)nc12 (stereo not drawn) |
| 180 nM | 260 nM | Active | 170 nM | CC(C)c1cnn2c(NCc3ccc(NC(=O)CCCCCCOc4cccc5c4C(=O)N(C4CCC(=O)NC4=O)C5=O)cc3)nc(OC3CCN(C)CC3)nc12 (stereo not drawn) |
| 98 nM | 65 nM | – | 74 nM | CC(C)c1cnn2c(NCc3ccc(NC(=O)N4CCN(CCCCCc5cccc6c5CN(C5CCC(=O)NC5=O)C6=O)CC4)cc3)nc(OC3CCN(C)CC3)nc12 (stereo not drawn) |
| 3450 nM | 4160 nM | – | 2010 nM | CC(C)c1cnn2c(NCc3cccc(CCCCCCCOc4cccc5c4C(=O)N(C4CCC(=O)NC4=O)C5=O)c3N(C)C)nc(OC3CCN(C)CC3)nc12 (stereo not drawn) |
| 4890 nM | 4260 nM | – | 2660 nM | CC(C)c1cnn2c(NCc3ccc(NC(=O)CCCCCCNc4cccc5c4C(=O)N(C4CCC(=O)NC4=O)C5=O)cc3N(C)C)nc(OC3CCN(C)CC3)nc12 (stereo not drawn) |
| 4590 nM | 9200 nM | – | 3780 nM | CC(C)c1cnn2c(NCc3ccc(NC(=O)COCCOCCOc4cccc5c4C(=O)N(C4CCC(=O)NC4=O)C5=O)cc3)nc(OC3CCN(C)CC3)nc12 (stereo not drawn) |
| 4370 nM | 10300 nM | – | 4690 nM | CC(C)c1cnn2c(NCc3ccc(NC(=O)COCCOCCOCCOc4cccc5c4C(=O)N(C4CCC(=O)NC4=O)C5=O)cc3)nc(OC3CCN(C)CC3)nc12 (stereo not drawn) |
| 104 nM | 72 nM | Active | 40 nM | CC(C)c1cnn2c(NCc3ccc(NC(=O)CCCCCCCOc4cccc5c4CN(C4CCC(=O)NC4=O)C5=O)cc3)nc(OC3CCN(C)CC3)nc12 (stereo not drawn) |
| 222 nM | 251 nM | – | 80 nM | CC(C)c1cnn2c(NCc3ccc(NC(=O)CCCCCN4CCN(CCCCCc5cccc6c5CN(C5CCC(=O)NC5=O)C6=O)CC4)cc3)nc(OC3CCN(C)CC3)nc12 (stereo not drawn) |
| 240 nM | 900 nM | – | 190 nM | CC(C)c1cnn2c(NCc3ccc(NC(=O)CCCCCN4CCN(CCCc5cccc6c5CN(C5CCC(=O)NC5=O)C6=O)CC4)cc3)nc(OC3CCN(C)CC3)nc12 (stereo not drawn) |
| > 20000 nM | > 20000 nM | – | 9880 nM | CC(C)c1cnn2c(NCc3ccccc3)nc(OC3CCN(CCOCCOCCNC(=O)COc4cccc5c4C(=O)N(C4CCC(=O)NC4=O)C5=O)CC3)nc12 (stereo not drawn) |
| 470 nM | 570 nM | – | 370 nM | CC(C)c1cnn2c(NCc3ccc(NC(=O)CCCCCOc4cccc5c4C(=O)N(C4CCC(=O)NC4=O)C5)cc3)nc(OC3CCN(C)CC3)nc12 (stereo not drawn) |
| > 20000 nM | > 20000 nM | – | 21500 nM | CC(C)c1cnn2c(NCc3ccccc3-n3ccnc3)nc(OC3CCN(CCOCCOCCOCCNC(=O)COc4cccc5c4C(=O)N(C4CCC(=O)NC4=O)C5=O)CC3)nc12 (stereo not drawn) |
| > 20000 nM | > 20000 nM | – | 12800 nM | CC(C)c1cnn2c(NCc3cccc(NC(=O)CCCCCCNC(=O)COc4cccc5c4C(=O)N(C4CCC(=O)NC4=O)C5=O)c3)nc(OC3CCN(C)CC3)nc12 (stereo not drawn) |
| 2870 nM | 4160 nM | – | 4110 nM | CC(C)c1cnn2c(NCc3ccc(CCCCCCCOc4cccc5c4C(=O)N(C4CCC(=O)NC4=O)C5=O)cc3N(C)C)nc(OC3CCN(C)CC3)nc12 (stereo not drawn) |
| 130 nM | 200 nM | Active | 230 nM | CC(C)c1cnn2c(NCc3ccc(NC(=O)CCCCCCc4cccc5c4CN(C4CCC(=O)NC4=O)C5=O)cc3)nc(OC3CCN(C)CC3)nc12 (stereo not drawn) |
| 16300 nM | 18500 nM | – | 12800 nM | CC(C)c1cnn2c(NCc3ccccc3)cc(NCCCCCCN)nc12 |
| 184 nM | 137 nM | Active | 35 nM | CC(C)c1cnn2c(NCc3ccc(NC(=O)CCCCCCCCCOc4cccc5c4CN(C4CCC(=O)NC4=O)C5=O)cc3)nc(OC3CCN(C)CC3)nc12 (stereo not drawn) |
| > 20000 nM | > 20000 nM | – | > 20000 nM | CC(C)c1cnn2c(NCc3ccccc3N(C)C)nc(OC3CCN(CCOCCOCCOCCNC(=O)COc4cccc5c4C(=O)N(C4CCC(=O)NC4=O)C5=O)CC3)nc12 (stereo not drawn) |
| 3370 nM | 4450 nM | – | 1570 nM | CC(C)c1cnn2c(NCc3ccc(CCCOCCOCCOc4cccc5c4C(=O)N(C4CCC(=O)NC4=O)C5=O)cc3)nc(OC3CCN(C)CC3)nc12 (stereo not drawn) |
| 560 nM | 950 nM | – | 640 nM | CC(C)c1cnn2c(NCc3ccc(NC(=O)CCCCCOc4cccc5c4C(=O)N(C4CCC(=O)NC4=O)C5=O)cc3)nc(OC3CCN(C)CC3)nc12 (stereo not drawn) |
